According to patent US20190112317A1, “ACTIVATORS OF AUTOPHAGIC FLUX AND PHOSPHOLIPASE D AND CLEARANCE OF PROTEIN AGGREGATES INCLUDING TAU AND TREATMENT OF PROTEINOPATHIES” (The Trustees of Columbia University in the City of New York, priority 2015, published 2019):

Experiment: Photodiode array (PDA) detection of compound in mouse brain
Assay type: in vivo
Conditions: PDA spectrum, FIG. 1
Text: FIG. 1 is a graph showing a photodiode array (PDA) spectrum of WHYKD8 in mouse brain.
A photodiode array (PDA) was used to detect WHYKD8 in mouse brain (FIG. 1).

Detection in mouse brain: readily detected
Structure (SMILES): Oc1ccc(CCNc2ncnc3ccc(Cl)cc23)cc1 [WHYKD8]
